For 2 compounds, IC50 results are on record in BindingDB's records for doi:10.1016/j.bmcl.2012.04.093 (University of Lisbon, 2012).

By IC50 is commonly meant the midpoint of a concentration-inhibition curve. Low values mean inhibition by little substance, high ones a need for much substance.

The assay addresses T1, Neutrophil elastase (Homo sapiens, UniProt P08246).
T1 sequence (P08246 whole entry): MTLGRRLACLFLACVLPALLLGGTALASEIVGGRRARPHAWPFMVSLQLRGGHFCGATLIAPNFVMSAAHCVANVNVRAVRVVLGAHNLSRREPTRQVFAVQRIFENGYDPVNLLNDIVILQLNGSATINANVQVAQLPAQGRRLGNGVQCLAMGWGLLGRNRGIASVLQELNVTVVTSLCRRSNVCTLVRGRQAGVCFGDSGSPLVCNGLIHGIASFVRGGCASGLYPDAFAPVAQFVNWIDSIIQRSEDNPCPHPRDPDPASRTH
As to the kind of experiment: Inhibition of human neutrophil elastase using chromogenic substrate (N-MeOSuc-Ala-Ala-Pro-Val-p-nitroanilide after 120 mins.

Consider `Cc1oc(=O)n(Cc2ccccc2)c1O`, for which the IC50 was > 500 µM. For the compound `COc1ccc(C(=O)n2c(O)c(C)oc2=O)cc1`, the 50% inhibitory concentration (IC50) is > 500 µM.
